Assay results reported in US8987324B2, “Use of simalikalactone E as an anticancer agent” (Institut de Recherche pour le Developpement, priority 2011, dated 2015).
Where two headings read alike, the source gives them in different places.

Experiments:
[1] = system: K562-Ima-S leukemia cell line; assay: XTT cell viability, K562-Ima-S; assay type: cell-based; conditions: 48 hours
Procedure: (§1) B1-1. XTT Cell Viability Measurement
(§2) This test measures the activity of mitochondrial succinate dehydrogenase, which represents an index of cell viability. This enzyme converts XTT into orange formazan. On day 0, the K562-Ima-S (sensitive to Ima), K562-Ima-R (resistant to Ima), A375 or MeWo cells are seeded at 15 000 cells/well (100 μl) in 96-well microplates and stimulated with increasing concentrations of Simalikalactone E [50-500 nM]. After 24 or 48 hours, 50 μl of tetrazolium (XTT reagent) are added to each well and the optical density at 490 nm is read every 30 minutes for 2 to 4 hours. The values obtained, which are an index of mitochondrial metabolism, make it possible to evaluate the percentage of live cells. Each condition is systematically carried out in triplicate.
(§3) The K562-Ima-S and K562-Ima-R tumor lines are incubated for 48 hours with increasing concentrations of Simalikalactone E (0, 100 or 250 nM) in the absence or in the presence of a maximally effective concentration (50 μM) of z-Vad-fmk (Zvad), which is a pan-caspase inhibitor (apoptosis inhibitor).

[2] = system: K562-Ima-R leukemia cell line; assay: XTT cell viability, K562-Ima-R; assay type: cell-based; conditions: 48 hours
Procedure: as §1, §2, §3

A375 melanoma cells = assay: XTT cell viability, A375 melanoma cells; assay type: cell-based; conditions: 48 hours; A375 carry B-raf V600E, MeWo do not
Procedure: as §1, §2
A375 and MeWo melanoma cells are then treated in the presence of increasing doses of Simalikalactone E. 48 hours later, the cells are subjected to an XTT test. The A375 cells carry the V600E mutation on the B-raf oncogene, which is reflected by constitutive activation of the Erk pathway.

K562 cells = assay: Clonogenic capacity of K562 cells; assay type: cell-based; conditions: SkE 100, 250 or 500 nM versus 1 μM imatinib, 7 to 10 days
Procedure: B1-2. Evaluation of the Clonogenic Capacity of K562 Cells
Aliquots of methylcellulose (40% Methocult®, 1% L-glutamine, 5% FCS (fetal calf serum) and 54% IMDM (Iscove's modified Dulbecco's medium)) are heated for 1 h at 37° C. 400 μl of RPMI (Roswell Park Memorial Institute medium), 5% of FCS containing the treatment (1 μM imatinib, 100, 250 or 500 nM SkE), and then 10^3 K562 cells in 200 μl of medium are added to each aliquot. For each condition, 500 μl of the suspension obtained are then deposited in 3 wells of a 24-well plate. A nontreated condition serves as a control. The plates are incubated at 37° C. for 7 to 10 days. 75 μl of MTT tetrazolium salt (Roche) (2.5 mg/ml) are added to each well. The MTT tetrazolium salt is cleaved into purple-colored formazan crystals by the metabolically active cells. After incubation for 4 h at 37° C., the wells are photographed and the clones are quantified using the Image J program.

[3] = system: CD34+ Bcr-Abl+ primary cells from patients suffering from CML; assay: XTT viability of CD34+ human primary cells from CML patients; assay type: cell-based; conditions: 48 hours
Procedure: The primary cells from patients suffering from CML (purified CD34+Bcr-Abl+) are incubated in the presence of variable concentrations of Simalikalactone E for 48 hours, and then the cell viability is quantified using an XTT colorimetric test. Imatinib (Ima) is used as a positive control for the induction of death of the Bcr-Abl+ cells.

[4] = system: Erk1/2 kinase (MAP kinase) phosphorylation; assay: Western blot of death markers and Erk1/2 phosphorylation, K562-Ima-S; assay type: cell-based
Procedure: (§4) The characterization of the type of cell death involved in the effect of Simalikalactone E is carried out according to the following protocols: • apoptosis (type I cell death) is studied by assaying caspase activity, caspases being cysteine proteases involved in this type of process. The apoptosis is also quantified by annexin V/propidium iodide co-labeling, the cells which externalize the annexin V at the level of their […] being cells undergoing apoptosis, • autophagic death (type II cell death) is analyzed by assaying cathepsin activity, these proteases being, for their part, involved in the degradation of the intracellular material included in vesicles (autophagolysosomes). […] B1-4. Xenografts of K562-Luc Cells on Nude Mice
(§5) The K562-Ima-S (A) and K562-Ima-R (B) cells are treated for variable periods of time with 250 nM of Simalikalactone E. The cells are then lyzed and protein extracts are prepared for western blot analysis. Finally, the membranes are incubated in the presence of the various anti-PARP, LC3b, p-Erk1/2, Erk1/2 and HSP60 antibodies.
K562-Ima-S cells are then treated for 1 hour in the presence of 250 nM of Simalikalactone E or 10 μM of U0126 (specific inhibitor of MEK1/2, the kinase responsible for Erk1/2 (MAP kinase) phosphorylation and activation). The cells are then lyzed and protein extracts are prepared for western blot analysis. The membranes are then incubated in the presence of the p-Erk1/2, Erk1/2 and HSP60 antibodies.

[5] = system: Erk1/2 kinase (MAP kinase) phosphorylation; assay: Western blot of death markers and Erk1/2 phosphorylation, K562-Ima-R; assay type: cell-based; conditions: 250 nM
Procedure: as §4, §5

[6] = system: Rafl-dependent Erk1/2 (MAP kinase) phosphorylation; assay: Rafl-dependent Erk1/2 phosphorylation in inducible HEK-Rafl-ER cells; assay type: cell-based; conditions: 30 minutes preincubation, then 1 μM tamoxifen for 1 hour
Procedure: In the experiment presented in FIG. 6B, inducible HEK-Rafl-ER cells were used. These cells express the Raf kinase under the control of the estrogen receptor. The expression of Raf can therefore be induced in the presence of tamoxifen. The cells are preincubated for 30 minutes with increasing doses of Simalikalactone E or U0126, and then treated with 1 μM of tamoxifen for 1 hour. The cells are then lyzed and protein extracts are prepared for western blot analysis. The membranes are finally incubated in the presence of the various antibodies (p-Erk1/2, Erk1/2 and HSP60). Simalikalactone E and U0126 inhibit Rafl-dependent Erk1/2 (MAP kinase) phosphorylation.

Vero mammalian cells = conditions: cited from earlier work
[7] = system: gametocyte forms of Plasmodium falciparum; conditions: compared with primaquine, reference molecule; cited from earlier work
[8] = system: Plasmodium vinckei petteri; conditions: murine model of malaria, cited from earlier work
[9] = mice, orally for 4 days; cited from earlier work
certain cell lines = conditions: cited from earlier work

CCC(C)C(=O)O[C@@H]1[C@H]2C(C)=CC(=O)[C@@H](O)[C@]2(C)[C@H]2[C@@H](O)[C@H](O)[C@@]3(C)OC[C@@]24[C@@H]1OC(=O)[C@H](OC(=O)C(C)CC)[C@@H]34 (some centres unmarked) [Simalikalactone E]
effect on viability in the presence of caspase inhibitor z-Vad-fmk ([1]; 50 μM z-Vad-fmk): not modified
sensitivity (growth and viability) ([1]; 100 or 250 nM): sensitive
effect on viability in the presence of caspase inhibitor z-Vad-fmk ([2]; 50 μM z-Vad-fmk): not modified
sensitivity (growth and viability) ([2]; 100 or 250 nM): sensitive
sensitivity in XTT test compared with MeWo cells (A375 melanoma cells): much more sensitive
inhibition of clonogenic capacity (K562 cells): as effectively as imatinib
inhibition of cell metabolism compared with imatinib ([3]; 500 nM): as effective as imatinib
EC50 ([3]; Homo sapiens, read-out: dose giving the half-maximum effect): 0.1 µM
apoptosis marker (PARP cleavage) ([4]; 250 nM): no cleavage of PARP
autophagy marker (LC3 conversion) ([4]; 250 nM): no modification of LC3
concentration of U0126 relative to Simalikalactone E for equal effect (times higher) ([4]; 250 nM SkE versus 10 μM U0126): 40
inhibition of Erk1/2 phosphorylation compared with U0126 ([4]; 250 nM SkE versus 10 μM U0126, 1 hour): as effective as U0126
Erk1/2 kinase (MAP kinase) phosphorylation ([4]; 250 nM, variable periods of time, imatinib-sensitive cells): inhibits
apoptosis marker (PARP cleavage) [5]: no cleavage of PARP
autophagy marker (LC3 conversion) [5]: no modification of LC3
Erk1/2 kinase (MAP kinase) phosphorylation ([5]; variable periods of time, imatinib-resistant cells): inhibits
Rafl-dependent Erk1/2 (MAP kinase) phosphorylation [6]: inhibit
selectivity index (Vero mammalian cells; Vero cells versus Plasmodium falciparum): greater than 100
IC50 (Vero mammalian cells; read-out: dose inhibiting 50% of the growth of Vero mammalian cells): 6.57 µM
concentration reducing the gametocyte level by 50%, relative to primaquine [7]: seven times lower
dose inhibiting 50% of the growth of Plasmodium vinckei petteri ([8]; intraperitoneally): 0.5 mg/kg/day
dose inhibiting 50% of the growth of Plasmodium vinckei petteri ([8]; orally): 1 mg/kg/day
dose tolerated [9]: 1 mg/kg/day
cytotoxic action (certain cell lines): moderate

N#CC(=C(/N)Sc1ccccc1N)/C(C#N)=C(\N)Sc1ccccc1N [U0126, reference compound]
Rafl-dependent Erk1/2 (MAP kinase) phosphorylation [6]: inhibit

CCN(CC)CCCC(C)Nc1ccnc2cc(Cl)ccc12 (centres unmarked) [chloroquine, reference compound]
dose inhibiting 50% of the growth of Plasmodium vinckei petteri ([8]; intraperitoneally): 3 mg/kg/day
